Values quoted from earlier work as cited in PMC4937428, “The Next Generation Non-competitive Active Polyester Nanosystems for Transferrin Receptor-mediated Peroral Transport Utilizing Gambogic Acid as a Ligand” (Scientific Reports, 2016).

Design: method as in PMID 16918721
Details: described in the literature

Q: With `CC(C)=CCC[C@]1(C)C=Cc2c(O)c3c(c(CC=C(C)C)c2O1)O[C@]12C(=C[C@@H]4C[C@H]1C(C)(C)O[C@@]2(C/C=C(/C)C(=O)O)C4=O)C3=O` [GA, gambogic acid] as the molecule, how does the Established safe dose read?
A: 60 mg/kg
